The values that follow come from US4698356A, “Anti-hypertensive agents” (University of Miami, priority 1979, dated 1987).

pIC50: −log10 of the molar value.

The assay deals with T1, human urinary ACE (angiotensin converting enzyme) (Homo sapiens, UniProt P12821).
T1 construct: The enzyme preparation was ACE purified from human urine; from tissue; host or cells: human urine (enzyme purified as described by Ryan, J.W., et al., Tissue and Cell 10, 555 (1978))
Put plainly: ACE activity assay (inhibition of hydrolysis of [3H]-Benzoyl-GlyHisLeu). The conditions noted are these: read-out: I50. The assay is classed as biochemical. How it is done: These factors include the source of enzyme, its purity, the substrate used and its concentration, and the composition of the assay buffer.
ACE activity assay. […] To initiate the assay, 40 μl of enzyme and 10 μl of water or inhibitor dissolved in water were preincubated for five minutes at 37° C. […] To terminate the reaction, 1 ml of 0.1M HCl was added, following which 1 ml of ethyl acetate was added. The mixture was agitated on a rotary mixer and centrifuged briefly to separate the phases.
An aliquot, 500 μl, of the ethyl acetate layer was transferred to a liquid scintillation vial containing 10 ml of Riafluor, trademark New England Nuclear Corporation, Boston, Mass. For determination of I50 values, enzyme activity in the presence of inhibitor at a series of different concentrations was compared to activity in the absence of inhibitor.

T1 sequence (P12821 30-1232 limits assumed): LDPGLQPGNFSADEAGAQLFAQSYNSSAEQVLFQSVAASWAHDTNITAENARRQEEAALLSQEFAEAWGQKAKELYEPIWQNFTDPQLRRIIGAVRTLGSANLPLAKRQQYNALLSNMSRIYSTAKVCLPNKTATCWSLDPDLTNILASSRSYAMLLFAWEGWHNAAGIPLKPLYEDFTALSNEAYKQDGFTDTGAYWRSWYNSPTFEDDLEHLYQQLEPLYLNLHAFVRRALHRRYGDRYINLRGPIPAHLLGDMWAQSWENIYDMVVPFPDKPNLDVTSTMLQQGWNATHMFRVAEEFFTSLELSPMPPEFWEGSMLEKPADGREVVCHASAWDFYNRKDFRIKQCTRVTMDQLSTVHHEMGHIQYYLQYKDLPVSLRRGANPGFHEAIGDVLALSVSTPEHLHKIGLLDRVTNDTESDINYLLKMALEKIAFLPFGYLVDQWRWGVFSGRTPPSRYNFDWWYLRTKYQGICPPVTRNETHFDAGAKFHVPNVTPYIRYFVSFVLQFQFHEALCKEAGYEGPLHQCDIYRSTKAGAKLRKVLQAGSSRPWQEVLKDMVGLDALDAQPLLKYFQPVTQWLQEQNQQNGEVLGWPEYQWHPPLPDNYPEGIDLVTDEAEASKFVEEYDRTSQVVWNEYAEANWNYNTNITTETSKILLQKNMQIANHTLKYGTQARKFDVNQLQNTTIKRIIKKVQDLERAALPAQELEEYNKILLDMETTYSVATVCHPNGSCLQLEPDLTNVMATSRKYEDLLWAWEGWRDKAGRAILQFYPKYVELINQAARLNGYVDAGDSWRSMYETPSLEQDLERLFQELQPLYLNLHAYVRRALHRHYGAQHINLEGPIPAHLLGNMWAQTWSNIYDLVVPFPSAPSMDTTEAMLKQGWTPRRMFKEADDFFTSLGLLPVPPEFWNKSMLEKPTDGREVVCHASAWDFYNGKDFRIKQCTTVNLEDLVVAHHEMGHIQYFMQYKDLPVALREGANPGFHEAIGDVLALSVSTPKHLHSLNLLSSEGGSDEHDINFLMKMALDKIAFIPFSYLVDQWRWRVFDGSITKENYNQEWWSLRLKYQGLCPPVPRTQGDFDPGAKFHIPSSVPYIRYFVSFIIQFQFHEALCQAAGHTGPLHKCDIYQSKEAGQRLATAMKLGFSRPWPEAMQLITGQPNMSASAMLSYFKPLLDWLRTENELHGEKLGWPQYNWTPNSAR

Consider `C[C@H](CSC(=O)[C@@H](N)Cc1ccccc1)C(=O)N1CCC[C@H]1C(=O)O` [Example 14, N^α -(3-L-phenylalanylthio-2-D-methylpropanoyl)-L-proline], for which the pIC50 was 8.06.
